# Key:
# [1] = system: LPS-induced TNFα; test: 28-day mouse side-effect model, LPS-induced serum TNFα suppression; type: in vivo; details: oral gavage 28 days, LPS challenge
# Experimental: (§1) 10-12 week old female Swiss Webster mice (Taconic, Germantown, N.Y., U.S.A.) weighing 27-29 grams are used in accordance with the guidelines of the Institutional Animal Care and Use Committee and in accordance with NIH guidelines on laboratory animal welfare. Mice are acclimated to the Pfizer animal facility for 3-7 days prior to being placed on study. Prednisolone and DAGR compounds are administered by oral gavage for a total of 28 days. Each treatment group generally contains 8-10 mice. To establish a dosing regimen for the studies, a pilot pharmacodynamic time course experiment is conducted to quantify TNFa repression after a single ED80 dose (determined from the acute LPS endotoxemia mouse model). […] DAGR compounds vary in their required frequency of doses.
# Body weights are measured on the first and last day of each experiment. Blood samples are obtained after ˜3 weeks of dosing for steady-state pharmacokinetic analysis. To assess compound effects on LPS-induced TNF-a, all mice receive an intraperitoneal injection of LPS (Salmonella Typhosa, Sigma, St. Louis, L-7895) 2.5 hr after the last dose on day 28. Mice are sacrificed 90 min. after LPS administration. Serum samples are assayed for osteocalcin and TNFa using the Linco multiplex assay (St. Charles, Mo.) and Luminex 100 (Austin, Tex.). Samples are diluted 1:20 and the assay is run according to manufacturer's instructions. An osteocalcin standard is purchased separately from Biomedical Technologies Incorporated (Stoughton, Mass.). Serum insulin is measured to assess compound effects on insulin resistance. Insulin was measured using the UltraSensitive Mouse EIA kit from Alpco Diagnostics (Salem, N.H.) following the manufacturer's protocol.
# (§2) ED50 and ED80 values are obtained for the various parameters using four-parameter logistic fits of data. For each experiment/dose group, outliers are detected by calculating the number of standard deviations each mouse's value was from the mean of their group and then dividing by the standard deviation of the group. The means and standard deviations used in this calculation omitted the value being examined so that, if it were an outlier, it would have no influence. If the value being examined is more than 2.5 standard deviations from the mean, it was not used in the rest of the calculations.
# (§3) Percent inhibition values are then calculated for each animal using the means of the vehicle and 10 mpk prednisone control groups. The individual mouse percent inhibition values are then fit to a four-parameter logistic model using the area under curve mean for each group. Since all four parameters are estimated and the lower plateau is not fixed at 0% and the upper plateau was not fixed at 100%, the ED50 and ED80 values are calculated by using an inverse calibration formula for a response equal to 50% or 80%. The designation “nd” means not determined.
# [2] = system: bone formation rate; test: 28-day mouse side-effect model, cortical bone histomorphometry (bone formation rate); type: in vivo; details: oral gavage 28 days, tibia cortical bone formation rate
# Experimental: as §1
# During the in-life portion of each study, mice received two IP injections of the fluorochrome calcein (C-0875; Sigma-Aldrich; 20 mg/kg; 200 μL/mouse), dissolved in 2% sodium bicarbonate, on days 1 and 26 for bone histomorphometry measurements. Fluorochrome labels incorporate into the bone mineral and allow measurement of bone formation rate. During the tissue harvest, the left tibia is excised and cleaned for cortical histomorphometry measurements. After all skin and muscle are removed, tibiae are placed in 70% ethanol (4° C.) in the dark for a minimum of 24 hours.
# Ground transverse sections are used for histomorphometric analysis of cortical bone^1. Bones are sectioned using a low speed saw (Isomet, Buehler, Lake Bluff, Ill.) equipped with a diamond wafer blade. The end of each tibia is removed proximal to tibia-fibula synostosis and a […] cross-section is cut. Using a roughened glass plate and a cork, sections are ground to […] until transparent and all labels distinguishable under a fluorescent microscope. Sections are dehydrated using the following solutions for a minimum of 2 minutes each: 1) 70% ethanol, 2) 95% ethanol, 3) 100% ethanol, 4) 50/50 ethanol/xylene, and 5) xylene (twice) (Sigma, St. Louis, 534056). Sections are mounted using Eukitt Quick Mounting Medium (Sigma, St. Louis, 03989) and cover-slipped. Using the Osteomeasure Bone Analysis Program (Decatur, Ga.), bone formation rate is calculated by tracing the 1st and 2nd fluorescent labels in addition to tracing the inner and outer perimeter of the bone. Bone formation rate is calculated by the following equation: (Interlabel Width/Label Interval)*(Labeled Perimeter/Bone Perimeter). At least 5 samples are measured from each treatment group in each study.
# as §2, §3
structure (smiles),measurement,setting,value
"Cc1ncccc1NC(=O)c1ccc2c(c1)C(=O)C[C@@H]1C[C@@](O)(c3ccccc3)[C@](C)(O)C[C@@]21Cc1ccccc1 [Example 1, (4bR,6R,7R,8aS)-4b-benzyl-6,7-dihydroxy-6-methyl-N-(2-methylpyridin-3-yl)-10-oxo-7-phenyl-4b,5,6,7,8,8a,9,10-octahydrophenanthrene-2-carboxamide]",ED50,"[1]; 672 h, read-out: TNFα Suppression (ED50 dose)",0.029 mg/kg
same,TNFα Suppression (ED80 dose),[1],0.11
same,ED50 at 28 days,"[2]; female, Swiss Webster, read-out: BFR (ED50 dose)",0.12 mg/kg
same,BFR (ED80 dose),[2],0.87

# — patent US8552035B2, “Phenanthrenone compounds, compositions and methods” (Pfizer Inc., priority 2008, dated 2013)
